“And” between values parts separate entries of the source, which are not always exact repeats. Identical values can stand only once. Like-named read-outs stand apart in the source and are kept apart here. Non-standard residues stand in square brackets, D forms with d. Residues, ends and D or L forms follow the SMILES beside them. *: point of attachment. Phe(3,4,5-F3) = N[C@@H](Cc1cc(F)c(F)c(F)c1)C(=O)O; Myristoyl = CCCCCCCCCCCCCC(=O)*; pGlu = O=C1CC[C@@H](C(=O)O)N1; Nle = CCCC[C@H](N)C(=O)O; Abu = CC[C@H](N)C(=O)O; Aib = CC(C)(N)C(=O)O
Key:
Design in all cases: host or cells: CHO-K1
human apelin receptor [1] = biological target: T1, human apelin receptor (Homo sapiens, UniProt P35414); assay: DRx β-arrestin assay (PathHunter eXpress AGTRL1 CHO-K1); format: cell-based; conditions: for Kb: DRx β-Arrestin pA2; for DRx β-Arrestin pA2: cho-k1 cells, 90 min
T1 sequence (P35414 1-380): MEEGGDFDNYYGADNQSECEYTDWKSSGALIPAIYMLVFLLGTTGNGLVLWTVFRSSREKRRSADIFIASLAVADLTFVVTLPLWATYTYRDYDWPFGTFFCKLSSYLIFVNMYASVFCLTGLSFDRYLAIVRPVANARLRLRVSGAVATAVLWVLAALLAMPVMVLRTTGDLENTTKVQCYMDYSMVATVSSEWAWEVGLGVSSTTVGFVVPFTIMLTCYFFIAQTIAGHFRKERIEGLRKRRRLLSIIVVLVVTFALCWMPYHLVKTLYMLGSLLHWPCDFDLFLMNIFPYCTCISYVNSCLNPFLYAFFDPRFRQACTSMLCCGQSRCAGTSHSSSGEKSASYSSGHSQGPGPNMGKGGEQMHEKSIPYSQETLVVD
Description: (§1) cAMP (cAMP Hunter™ eXpress AGTRL1 CHO-K1 GPCR Assay, DiscoverX Corporation, Ltd. Birmingham, UK) and β-arrestin (PathHunter® eXpress AGTRL1 CHO-K1 β-Arrestin GPCR Assay, DiscoverX Corporation, Ltd. Birmingham, UK) assays were performed according to the manufacturer's instructions. The cAMP assay measures the canonical signalling pathway through the G-protein. The β-arrestin assay measures the alternative signalling pathway and receptor internalisation.
For recruitment of β-arrestin, CHO-K1 cells artificially expressing the human apelin receptor were seeded in Cell Plating medium into 96-well plates and incubated for 48 hours at 37° C. in 5% CO2. Concentration response curves were constructed to test peptides (1 pmol/L-30 μmol/L) which were diluted in Cell Plating medium and added to the cells for 90 minutes at 37° C. If no response was obtained then test peptides were investigated as antagonists. […] Detection reagents were then added for a 2-hour incubation at room temperature. […] If no agonist response was obtained, test compounds were investigated for antagonist activity by repeating [Pyr]apelin-13 concentration response curves in the absence and presence of a single concentration (1-30 μmol/L of test peptide). Data were analysed as described for the cAMP assay using the Gaddum/Schild EC50 function in GraphPad Prism 6 to determine values of pA2.

human apelin receptor [2] = biological target: T1, human apelin receptor; assay: DRx cAMP assay (cAMP Hunter eXpress AGTRL1 CHO-K1), forskolin-induced cAMP accumulation; format: cell-based; conditions: DRx cAMP pA2, antagonism of [Pyr1]apelin-13 inhibition of forskolin-stimulated cAMP
Description: Antagonist activity at the apelin receptor was measured in two assays.
as §1
Cells were then incubated with a mixture of Lysis Buffer, cAMP Buffer D and Detection Reagents for 1 hour at room temperature, followed by a 3 hour incubation with cAMP Reagent A at room temperature. Chemiluminescence was read using the LumiLITE™ Microplate Reader (DiscoverX). Concentration-response data for agonists, measured in relative light units (RLU), were analysed using a 4 parameter logistic equation in GraphPad Prism 6 (La Jolla, CA, USA) to determine values of potency expressed as the pD2 value (negative logo of the EC50 (where EC50 is the concentration producing half maximal response)), and maximum response (EMAX). Mean data from replicate experiments were normalised as percentage inhibition of forskolin-stimulated cAMP production.

human apelin receptor [3] = biological target: T1, human apelin receptor; assay: Cerep radioligand binding assay on CHO-K1 cells expressing the human apelin receptor
Description: Binding assays were performed by Cerep (Celle L'Evescault, France) on Chinese Hamster Ovary (CHO-K1) cells expressing the human apelin receptor. […] The results were expressed as a percent of control specific binding ((measured specific binding/control specific binding)×100) and as a percent inhibition of control specific binding (100−((measured specific binding/control specific binding)×100)) obtained in the presence of the test compounds. […] The inhibition constants (Ki) were calculated using the Cheng Prusoff equation (Ki=IC50/(1+(L/KD)), where L=concentration of radioligand in the assay, and KD=equilibrium dissociation constant of the radioligand for the receptor).

[4] = [Glp65,Nle75,Tyr77][125I]apelin-13, read-out: Ki (binding affinity at the apelin receptor, Cerep)

Row | Kb (human apelin receptor [1]) | DRx β-Arrestin pA2 (human apelin receptor [1]) | Kb (human apelin receptor [2]) | Ki (human apelin receptor [3]; [4]) | SMILES | Ki (human apelin receptor [3]; Ki (binding affinity at the apelin receptor, Cerep), [Glp65,Nle75,Tyr77][125I]apelin-13) [nM]
1 | 29.5 nM | pA2 = 7.53 | 447 nM and 135 nM | 34 nM | CCCC[C@H](NC(=O)[C@H](CCCNC(=N)N)NC(=O)C(C)(C)NC(=O)[C@H](CCCNC(=N)N)NC(=O)[C@H](CS)NC(=O)[C@H](Cc1c[nH]cn1)NC(=O)[C@H](CCCCN)NC(=O)[C@H](CS)NC(=O)[C@H](CCCC)NC(=O)[C@H](CCCNC(=N)N)NC(=O)[C@@H]1CCCN1C(=O)[C@H](CCCNC(=N)N)NC(=O)[C@@H](N)CCC(N)=O)C(=O)N[C@@H](Cc1cc(F)c(F)c(F)c1)C(=O)O [MM262, QRPR-Nle-CKHCR-Aib-R-Nle-(3,4,5-trifluorophenylalanine)] (H-QRPR[Nle]CKHCR[Aib]R[Nle][Phe(3,4,5-F3)]-OH) | 
2 | 41.7 nM | pA2 = 7.38 | 832 nM and 724 nM | 55 nM | CCCC[C@H](NC(=O)[C@H](CCCNC(=N)N)NC(=O)C(C)(C)NC(=O)[C@H](CCCNC(=N)N)NC(=O)[C@H](CS)NC(=O)[C@H](Cc1c[nH]cn1)NC(=O)[C@H](CCCCN)NC(=O)[C@H](CS)NC(=O)[C@H](CCCC)NC(=O)[C@H](CCCNC(=N)N)NC(=O)[C@@H]1CCCN1C(=O)[C@H](CCCNC(=N)N)NC(=O)[C@@H]1CCC(=O)N1)C(=O)N[C@@H](Cc1cc(F)c(F)c(F)c1)C(=O)O [MM297, pyr-RPR-Nle-CKHCR-Aib-R-Nle-(3,4,5-trifluorophenylalanine)] ([pGlu]RPR[Nle]CKHCR[Aib]R[Nle][Phe(3,4,5-F3)]-OH) | 
3 | 17.4 nM | pA2 = 7.76 | 25.7 nM and 75.9 nM | 16 nM | CCCC[C@H](NC(=O)[C@H](CCCNC(=N)N)NC(=O)C(C)(C)NC(=O)[C@H](CCCNC(=N)N)NC(=O)[C@H](CS)NC(=O)[C@H](Cc1c[nH]cn1)NC(=O)[C@H](CCCCN)NC(=O)[C@H](CC)NC(=O)[C@H](CCCC)NC(=O)[C@H](CCCNC(=N)N)NC(=O)[C@@H]1CCCN1C(=O)[C@H](CCCNC(=N)N)NC(=O)[C@@H](N)CS)C(=O)N[C@@H](Cc1cc(F)c(F)c(F)c1)C(=O)O [MM298, CRPR-Nle-Abu-KHCR-Aib-R-Nle-(3,4,5-trifluorophenylalanine)] (H-CRPR[Nle][Abu]KHCR[Aib]R[Nle][Phe(3,4,5-F3)]-OH) | 
4 | 7.94 nM and 2.95 nM |  | 47.9 nM and 112 nM | 6.1 nM | CCCC[C@H](NC(=O)[C@H](CCCNC(=N)N)NC(=O)C(C)(C)NC(=O)[C@H](CCCNC(=N)N)NC(=O)[C@H](CC)NC(=O)[C@H](Cc1c[nH]cn1)NC(=O)[C@H](CCCCN)NC(=O)[C@H](CS)NC(=O)[C@H](CCCC)NC(=O)[C@H](CCCNC(=N)N)NC(=O)[C@@H]1CCCN1C(=O)[C@H](CCCNC(=N)N)NC(=O)[C@@H](N)CS)C(=O)N[C@@H](Cc1cc(F)c(F)c(F)c1)C(=O)O [MM299, CRPR-Nle-CKH-Abu-R-Aib-R-Nle-(3,4,5-trifluorophenylalanine)] (H-CRPR[Nle]CKH[Abu]R[Aib]R[Nle][Phe(3,4,5-F3)]-OH) | 
5 |  |  | 251 nM and 145 nM | 190 nM and 160 nM | CCCC[C@H](NC(=O)[C@H](CCCNC(=N)N)NC(=O)C(C)(C)NC(=O)[C@H](CCCNC(=N)N)NC(=O)[C@H](CC)NC(=O)[C@H](Cc1c[nH]cn1)NC(=O)[C@H](CCCCN)NC(=O)[C@H](CS)NC(=O)[C@H](CCCC)NC(=O)[C@H](CCCNC(=N)N)NC(=O)[C@@H]1CCCN1C(=O)[C@H](CCCNC(=N)N)NC(=O)[C@H](C)N)C(=O)N[C@@H](Cc1cc(F)c(F)c(F)c1)C(=O)O [MM312, ARPR-Nle-CKH-Abu-R-Aib-R-Nle-(3,4,5-trifluorophenylalanine)] (H-ARPR[Nle]CKH[Abu]R[Aib]R[Nle][Phe(3,4,5-F3)]-OH) | 
6 |  |  | 219 nM and 120 nM | 53 nM and 47 nM | CCCC[C@H](NC(=O)[C@H](CCCNC(=N)N)NC(=O)C(C)(C)NC(=O)[C@H](CCCNC(=N)N)NC(=O)[C@H](CC)NC(=O)[C@H](Cc1c[nH]cn1)NC(=O)[C@H](CCCCN)NC(=O)[C@H](CS)NC(=O)[C@H](CCCC)NC(=O)[C@H](CCCNC(=N)N)NC(=O)[C@@H]1CCCN1C(=O)[C@H](CCCNC(=N)N)NC(=O)[C@H](C)NC(C)=O)C(=O)N[C@@H](Cc1cc(F)c(F)c(F)c1)C(=O)O [MM313, Ac-ARPR-Nle-CKH-Abu-R-Aib-R-Nle-(3,4,5-trifluorophenylalanine)] (Ac-ARPR[Nle]CKH[Abu]R[Aib]R[Nle][Phe(3,4,5-F3)]-OH) | 
7 |  |  | 372 nM and 195 nM | 10 nM and 8.9 nM | CCCC[C@H](NC(=O)[C@H](CCCNC(=N)N)NC(=O)C(C)(C)NC(=O)[C@H](CCCNC(=N)N)NC(=O)[C@H](CC)NC(=O)[C@H](Cc1c[nH]cn1)NC(=O)[C@H](CCCCN)NC(=O)[C@H](CC)NC(=O)[C@H](CCCC)NC(=O)[C@H](CCCNC(=N)N)NC(=O)[C@@H]1CCCN1C(=O)[C@H](CCCNC(=N)N)NC(=O)[C@H](C)N)C(=O)N[C@@H](Cc1cc(F)c(F)c(F)c1)C(=O)O [MM314, ARPR-Nle-Abu-KH-Abu-R-Aib-R-Nle-(3,4,5-trifluorophenylalanine)] (H-ARPR[Nle][Abu]KH[Abu]R[Aib]R[Nle][Phe(3,4,5-F3)]-OH) | 
8 |  |  | 7.76 nM and 3.02 nM | 2.7 nM and 3 nM | CCCCCCCCCCCCCC(=O)N[C@@H](C)C(=O)N[C@@H](CCCNC(=N)N)C(=O)N1CCC[C@H]1C(=O)N[C@@H](CCCNC(=N)N)C(=O)N[C@@H](CCCC)C(=O)N[C@@H](CC)C(=O)N[C@@H](CCCCN)C(=O)N[C@@H](Cc1c[nH]cn1)C(=O)N[C@@H](CC)C(=O)N[C@@H](CCCNC(=N)N)C(=O)NC(C)(C)C(=O)N[C@@H](CCCNC(=N)N)C(=O)N[C@@H](CCCC)C(=O)N[C@@H](Cc1cc(F)c(F)c(F)c1)C(=O)O [MM315, Myristoyl-ARPR-Nle-Abu-KH-Abu-R-Aib-R-Nle-(3,4,5-trifluorophenylalanine)] (Myristoyl-ARPR[Nle][Abu]KH[Abu]R[Aib]R[Nle][Phe(3,4,5-F3)]-OH) | 
9 |  |  | 13.2 nM and 38.9 nM | 2.8 nM and 3 nM | CCCCCCCCCCCCCC(=O)N[C@@H](C)C(=O)N[C@@H](CCCNC(=N)N)C(=O)N1CCC[C@H]1C(=O)N[C@@H](CCCNC(=N)N)C(=O)N[C@@H](CCCC)C(=O)N[C@@H](CC)C(=O)N[C@@H](Cc1c[nH]cn1)C(=O)N[C@@H](CCCCN)C(=O)N[C@@H](CC)C(=O)N[C@@H](CCCNC(=N)N)C(=O)NC(C)(C)C(=O)N[C@@H](CCCNC(=N)N)C(=O)N[C@@H](CCCC)C(=O)N[C@@H](Cc1cc(F)c(F)c(F)c1)C(=O)O [MM316, Myristoyl-ARPR-Nle-Abu-HK-Abu-R-Aib-R-Nle-(3,4,5-trifluorophenylalanine)] (Myristoyl-ARPR[Nle][Abu]HK[Abu]R[Aib]R[Nle][Phe(3,4,5-F3)]-OH) | 

Row | SMILES | Kb (human apelin receptor [1]) | DRx β-Arrestin pA2 (human apelin receptor [1]) | Kb (human apelin receptor [2]) | Ki (human apelin receptor [3]; [4]) | Ki (human apelin receptor [3]; Ki (binding affinity at the apelin receptor, Cerep), [Glp65,Nle75,Tyr77][125I]apelin-13) [nM]
10 | CC(C)C[C@H](NC(=O)[C@H](CCCNC(=N)N)NC(=O)[C@@H]1CCCN1C(=O)[C@H](CCCNC(=N)N)NC(=O)[C@H](CS)NC(=O)[C@H](CCCCN)NC(=O)[C@H](Cc1c[nH]cn1)NC(=O)[C@H](CS)NC(=O)[C@H](CC(C)C)NC(=O)[C@H](CCCNC(=N)N)NC(=O)[C@@H]1CCCN1C(=O)[C@H](CCCNC(=N)N)NC(=O)[C@@H](N)CS)C(=O)N[C@@H](CS)C(=O)O [MM107] (H-CRPRLCHKCRPRLC-OH; N-terminus and C-terminus assumed) | 57.5 nM | pA2 = 7.24 | 4680 nM and 575 nM |  | 
11 | CC(C)C[C@H](NC(=O)[C@H](CCCNC(=N)N)NC(=O)[C@@H]1CCCN1C(=O)[C@H](CCCNC(=N)N)NC(=O)[C@H](CS)NC(=O)[C@H](Cc1c[nH]cn1)NC(=O)[C@H](CCCCN)NC(=O)[C@H](CS)NC(=O)[C@H](CC(C)C)NC(=O)[C@H](CCCNC(=N)N)NC(=O)[C@@H]1CCCN1C(=O)[C@H](CCCNC(=N)N)NC(=O)[C@@H](N)CS)C(=O)N[C@@H](CS)C(=O)O [MM108] (H-CRPRLCKHCRPRLC-OH) | 38.9 nM | pA2 = 7.41 | 107 nM and 191 nM |  | 140
